The experiment concerns Ascaridia galli (L3) and Oesophagostumum dentatum (L3 and L4) larvae. Briefly: In vitro anthelmintic larval test, minimum effective concentration by microscopic examination. The following applies: read-out: minimum effective concentration (MEC). The class given is cell-based. On the procedure:
C: Biological Examples Efficacy Against Ascaridia galli and Oesophagostomum dentatum
Anthelmintic effects of compounds of this invention (numbers refer to compound numbers in Table I) were tested in vitro using gut-welling larval stages of two parasitic nematode species: Ascaridia galli (intestinal roundworm of chicken), larval stage 3 (“L3”); and Oesophagostumum dentatum (nodular worm of swine), larval stages 3 and 4 (respectively “L3” and “L4”). When conducting these experiments, DMSO-solutions of various concentrations of compounds of this invention were prepared and incubated in 96-well microtiter plates. The parasites were then distributed at 20 larvae per well. The anthelmintic effects were classified by microscopic examination. The microscopic examination included assessing mortality, damage, motility, progression of development, and neutral red uptake by the larvae in comparison to a DMSO-control.

[1] abbreviates: activity against one or both of the nematodes (A. galli L3; O. dentatum L3, L4), 96-well plates, 20 larvae per well, vs DMSO-control.

Read-outs that look alike come from different tables or passages of the source.

For `Cc1cc(C(=O)N2CC3(CCN(C/C=C/c4ccc(F)cc4F)CC3)c3cc(Sc4ccc(F)cc4)ccc32)cc(Cl)n1` [Compound 39, (2-chloro-6-methyl-4-pyridyl)-[1′-[(E)-3-(2,4-difluorophenyl)allyl]-5-(4-fluorophenyl)sulfanyl-spiro[indoline-3,4′-piperidine]-1-yl]methanone], the minimal effective concentration under setting [1] is ≤ 50 µM. Turning to `Cc1cc(C(=O)N2CC3(CCN(C/C=C/c4ccc(C)c(C)c4)CC3)c3cc(Sc4ccc(F)cc4)ccc32)ccn1` [Compound 16, [1′-[(E)-3-(3,4-dimethylphenyl)allyl]-5-(4-fluorophenyl)sulfanyl-spiro[indoline-3,4′-piperidine]-1-yl]-(2-methyl-4-pyridyl)methanone], the minimal effective concentration under setting [1] is ≤ 50 µM. As to `Cc1ccc(/C=C/CN2CCC3(CC2)CN(C(=O)c2ccnc(C)c2)c2ccc(Sc4ccc(F)cc4)cc23)cc1` [Compound 19, [5-(4-fluorophenyl)sulfanyl-1′-[(E)-3-(p-tolyl)allyl]spiro[indoline-3,4′-piperidine]-1-yl]-(2-methyl-4-pyridyl)methanone], under setting [1], the minimal effective concentration is ≤ 50 µM.

As for `O=C(c1ccnc(Cl)c1)N1CC2(CCN(C/C=C/c3ccc(F)cc3)CC2)c2cc(Sc3ccc(F)cc3)ccc21` [Compound 35, (2-chloro-4-pyridyl)-[1′-[(E)-3-(4-fluorophenyl)allyl]-5-(4-fluorophenyl)sulfanyl-spiro[indoline-3,4′-piperidine]-1-yl]methanone], the minimal effective concentration under setting [1] is ≤ 50 µM. With `O=C(c1ccnc(Cl)c1)N1CC2(CCN(C/C=C/c3ccccc3)CC2)c2cc(Sc3ccc(F)cc3)ccc21` [Compound 11, (2-chloro-4-pyridyl)-[1′-[(E)-cinnamyl]-5-(4-fluorophenyl)sulfanyl-spiro[indoline-3,4′-piperidine]-1-yl]methanone], the minimal effective concentration is ≤ 50 µM. Consider `Cc1cc(C(=O)N2CC3(CCN(C/C=C/c4ccc(F)c(F)c4)CC3)c3cc(Sc4ccc(F)cc4)ccc32)ccn1` [Compound 34, [1′-[(E)-3-(3,4-difluorophenyl)allyl]-5-(4-fluorophenyl)sulfanyl-spiro[indoline-3,4′-piperidine]-1-yl]-(2-methyl-4-pyridyl)methanone], for which the minimal effective concentration under setting [1] is ≤ 50 µM.

Regarding `Cc1cc(C(=O)N2CC3(CCN(C/C=C/c4ccc(Cl)cc4Cl)CC3)c3cc(Sc4ccc(F)cc4)ccc32)cc(Cl)n1` [Compound 30, (2-chloro-6-methyl-4-pyridyl)-[1′-[(E)-3-(2,4-dichlorophenyl)allyl]-5-(4-fluorophenyl)sulfanyl-spiro[indoline-3,4′-piperidine]-1-yl]methanone], the minimal effective concentration under setting [1] is ≤ 50 µM. Still for that read-out and setting: the figure for `O=C(c1ccnc(Cl)c1)N1CC2(CCN(C/C=C/c3ccc(Cl)c(Cl)c3)CC2)c2cc(Sc3ccc(F)cc3)ccc21` [Compound 23, (2-chloro-4-pyridyl)-[1′-[(E)-3-(3,4-dichlorophenyl)allyl]-5-(4-fluorophenyl)sulfanyl-spiro[indoline-3,4′-piperidine]-1-yl]methanone] is ≤ 50 µM. Same read-out and setting: the figure for `Cc1cc(C(=O)N2CC3(CCN(C/C=C/c4ccc(F)cc4)CC3)c3cc(Sc4ccc(F)cc4)ccc32)ccn1` [Compound 37, [1′-[(E)-3-(4-fluorophenyl)allyl]-5-(4-fluorophenyl)sulfanyl-spiro[indoline-3,4′-piperidine]-1-yl]-(2-methyl-4-pyridyl)methanone] is ≤ 50 µM.

As for `Cc1cc(C(=O)N2CC3(CCN(C/C=C/c4ccc(F)cc4F)CC3)c3cc(Sc4ccc(F)cc4)ccc32)ccn1` [Compound 40, [1′-[(E)-3-(2,4-difluorophenyl)allyl]-5-(4-fluorophenyl)sulfanyl-spiro[indoline-3,4′-piperidine]-1-yl]-(2-methyl-4-pyridyl)methanone], the minimal effective concentration under setting [1] is ≤ 50 µM. Same read-out and setting: under `Cc1cc(C(=O)N2CC3(CCN(C/C=C/c4ccc(Cl)c(Cl)c4)CC3)c3cc(Sc4ccc(F)cc4)ccc32)cc(Cl)n1` [Compound 24, (2-chloro-6-methyl-4-pyridyl)-[1′-[(E)-3-(3,4-dichlorophenyl)allyl]-5-(4-fluorophenyl)sulfanyl-spiro[indoline-3,4′-piperidine]-1-yl]methanone] stands ≤ 50 µM; under `Cc1ccc(/C=C/CN2CCC3(CC2)CN(C(=O)c2ccnc(Cl)c2)c2ccc(Sc4ccc(F)cc4)cc23)cc1C` [Compound 14, (2-chloro-4-pyridyl)-[1′-[(E)-3-(3,4-dimethylphenyl)allyl]-5-(4-fluorophenyl)sulfanyl-spiro[indoline-3,4′-piperidine]-1-yl]methanone], ≤ 50 µM; under `Cc1cc(C(=O)N2CC3(CCN(C/C=C/c4ccc(Cl)cc4)CC3)c3cc(Sc4ccc(F)cc4)ccc32)ccn1` [Compound 28, [1′-[(E)-3-(4-chlorophenyl)allyl]-5-(4-fluorophenyl)sulfanyl-spiro[indoline-3,4′-piperidine]-1-yl]-(2-methyl-4-pyridyl)methanone], ≤ 50 µM. Take `Cc1cc(C(=O)N2CC3(CCN(C/C=C/c4ccccc4)CC3)c3cc(Sc4ccc(F)cc4)ccc32)ccn1` [Compound 13, [1′-[(E)-cinnamyl]-5-(4-fluorophenyl)sulfanyl-spiro[indoline-3,4′-piperidine]-1-yl]-(2-methyl-4-pyridyl)methanone]: the minimal effective concentration is ≤ 50 µM. On to `Cc1ccc(/C=C/CN2CCC3(CC2)CN(C(=O)c2ccnc(Cl)c2)c2ccc(Sc4ccc(F)cc4)cc23)cc1` [Compound 17, (2-chloro-4-pyridyl)-[5-(4-fluorophenyl)sulfanyl-1′-[(E)-3-(p-tolyl)allyl]spiro[indoline-3,4′-piperidine]-1-yl]methanone], for which, under setting [1], the minimal effective concentration is ≤ 50 µM.

Turning to `Cc1ccc(/C=C/CN2CCC3(CC2)CN(C(=O)c2cc(C)nc(Cl)c2)c2ccc(Sc4ccc(F)cc4)cc23)cc1` [Compound 18, (2-chloro-6-methyl-4-pyridyl)-[5-(4-fluorophenyl)sulfanyl-1′-[(E)-3-(p-tolyl)allyl]spiro[indoline-3,4′-piperidine]-1-yl]methanone], the minimal effective concentration under setting [1] is ≤ 50 µM. The same measure, in the same setting: under `Cc1cc(C(=O)N2CC3(CCN(C/C=C/c4ccc(F)cc4)CC3)c3cc(Sc4ccc(F)cc4)ccc32)cc(Cl)n1` [Compound 36, (2-chloro-6-methyl-4-pyridyl)-[1′-[(E)-3-(4-fluorophenyl)allyl]-5-(4-fluorophenyl)sulfanyl-spiro[indoline-3,4′-piperidine]-1-yl]methanone] stands ≤ 50 µM.

As for `O=C(c1ccnc(Cl)c1)N1CC2(CCN(C/C=C/c3ccc(F)cc3F)CC2)c2cc(Sc3ccc(F)cc3)ccc21` [Compound 38, (2-chloro-4-pyridyl)-[1′-[(E)-3-(2,4-difluorophenyl)allyl]-5-(4-fluorophenyl)sulfanyl-spiro[indoline-3,4′-piperidine]-1-yl]methanone], the minimal effective concentration under setting [1] is ≤ 50 µM. On the same count and under the same terms, the figure for `Cc1ccc(/C=C/CN2CCC3(CC2)CN(C(=O)c2ccnc(Cl)c2)c2ccc(Sc4ccc(F)cc4)cc23)c(C)c1` [Compound 20, (2-chloro-4-pyridyl)-[1′-[(E)-3-(2,4-dimethylphenyl)allyl]-5-(4-fluorophenyl)sulfanyl-spiro[indoline-3,4′-piperidine]-1-yl]methanone] is ≤ 50 µM.

(Values after patent US9096599B2, “Spiroindoline compounds” (Intervet Inc., priority 2011, dated 2015).)
